This passage reports Km results from publication PMC11867202, “Phosphonoalamides Reveal the Biosynthetic Origin of Phosphonoalanine Natural Products and a Convergent Pathway for Their Diversification” (Angewandte Chemie (International ed. in English), 2024).

Molecules are shown by their SMILES. Where two headings read alike, the source gives them in different places.

In assay [1] the test system is PnaA. To be noted: read-out: Km (apparent); co-substrate oxaloacetate; PLP.
The next assay relates to T1, PnaD.
T1 construct: recombinant, purified from E. coli; assayed coupled to PnaA
The experiment in a line: coupled spectrophotometric assay, NADH oxidation; PnaD with PnaA. It is filed as biochemical, Streptomyces sp. NRRL S-515. The conditions noted are these: two-enzyme system, 5:1 PnaD to PnaA; co-substrate L-Asp; read-out: Km (apparent). The text has this: coupled spectrophotometric assay, NADH oxidation; PnaD with PnaA on PnaD | apparent steady state parameters for the conversion of PEP to L-PnAla in reactions with PnaD

In assay [2] the test system is T2, PnaA.
T2 construct: recombinant, purified from E. coli; PLP-dependent
In words: coupled spectrophotometric assay, NADH oxidation via PnPy reductase VlpB. It is filed as biochemical, Streptomyces sp. NRRL S-515. The conditions noted are these: reverse reaction; co-substrate oxaloacetate; PLP; varied substrate not explicitly named in main text; read-out: Km (apparent). The text has this:
coupled spectrophotometric assay, NADH oxidation via PnPy reductase VlpB on PnaA | the reverse reaction (transamination of PnAla and OAA to PnPy and Asp)

The subject of assay [3] is T2, PnaA. In words: coupled spectrophotometric assay, NADH oxidation via malate dehydrogenase. It is filed as biochemical, Streptomyces sp. NRRL S-515. To be noted: co-substrate L-Asp; PLP; read-out: Km (apparent).

In the case of `N[C@@H](CCC(=O)O)C(=O)O` [Glu], in the assay on PnaA [1], the Km is 7500 ± 700 µM.

`C=C(OP(=O)(O)O)C(=O)O` [PEP]: the Km in the assay on PnaD worked out at 546 ± 60 µM.

Take `N[C@@H](CP(=O)(O)O)C(=O)O` [PnAla]: the Km with PnaA [2] is 327 ± 40 µM.

Take `O=C(O)C(=O)CP(=O)(O)O` [PnPy]: the Km in the assay with PnaA [3] was 4.8 ± 0.4 µM.

As to `O=C(O)CCC(=O)C(=O)O` [αKG], the Km with PnaA [3] came to 899 ± 97 µM.
